Data taken from PubChem BioAssay AID256 (DTP/NCI, 2004).
“And” between values parts separate entries of the source, which are not always exact repeats. Identical values can stand only once. Inconclusive results and toxic doses are left out.

System: CD2F1 mice, L1210 leukemia ip, survival T/C
Experiment: NCI In Vivo Anticancer Drug Screen. Data for tumor model L1210 Leukemia (intraperitoneal) in CD2F1 (CDF1) mice
Settings: higher = longer survival
Procedure, shortened: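 Each value reflects a quotient of treated over vehicle control outcomes in mice with a transplanted tumor.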

[1] = endpoint: mean survival time, dose: 100.0 mg/kg/injection, schedule: Q04DX003 (ip), vehicle: saline with Tween-80
[2] = endpoint: mean survival time, dose: 200.0 mg/kg/injection, schedule: Q04DX003 (ip), vehicle: saline with Tween-80
[3] = endpoint: mean survival time, dose: 400.0 mg/kg/injection, schedule: Q04DX003 (ip), vehicle: saline with Tween-80
[4] = endpoint: mean survival time, dose: 100.0 mg/kg/injection, schedule: Q01DX001 (ip), vehicle: saline with Tween-80
[5] = endpoint: mean survival time, dose: 200.0 mg/kg/injection, schedule: Q01DX001 (ip), vehicle: saline with Tween-80
[6] = endpoint: mean survival time, dose: 400.0 mg/kg/injection, schedule: Q01DX001 (ip), vehicle: saline with Tween-80
[7] = endpoint: mean survival time, dose: 100.0 mg/kg/injection, schedule: Q01DX009 (ip), vehicle: saline
[8] = endpoint: mean survival time, dose: 50.0 mg/kg/injection, schedule: Q01DX009 (ip), vehicle: saline with Tween-80
[9] = endpoint: mean survival time, dose: 100.0 mg/kg/injection, schedule: Q01DX009 (ip), vehicle: saline with Tween-80

Compound: O=C1CN(c2ccccc2)C(=O)C1C(=O)Nc1ccc(Cl)c(Cl)c1 (configuration not stated)
- T/C (endpoint: median survival time, dose: 25.9 mg/kg/injection, schedule: Q01DX005 (ip), vehicle: saline with Tween-80): 104 % of control
- T/C (endpoint: median survival time, dose: 30.0 mg/kg/injection, schedule: Q01DX005 (ip), vehicle: saline with Tween-80): 97 % of control
- T/C (endpoint: median survival time, dose: 43.0 mg/kg/injection, schedule: Q01DX005 (ip), vehicle: saline with Tween-80): 101 % of control and 104 % of control
- T/C (endpoint: median survival time, dose: 43.2 mg/kg/injection, schedule: Q01DX005 (ip), vehicle: saline with Tween-80): 98 % of control and 104 % of control
- T/C (endpoint: median survival time, dose: 60.0 mg/kg/injection, schedule: Q01DX005 (ip), vehicle: saline with Tween-80): 102 % of control

Compound: Cc1ccc(C(=O)/C=C/c2ccc(N(C)C)cc2)cc1
- T/C [1]: 87 % of control
- T/C [2]: 87 % of control
- T/C [3]: 89 % of control

Compound: CC1=NCCc2ccccc21
- T/C (endpoint: mean survival time, dose: 12.5 mg/kg/injection, schedule: Q04DX003 (ip), vehicle: saline): 102 % of control
- T/C (endpoint: mean survival time, dose: 25.0 mg/kg/injection, schedule: Q04DX003 (ip), vehicle: saline): 93 % of control

Compound: CC(=O)O[C@H]1C(=O)[C@@]2(C)[C@H]([C@H](OC(=O)c3ccccc3)[C@]3(O)C[C@H](OC(=O)[C@H](O)[C@@H](NC(=O)c4ccccc4)c4ccccc4)C(C)=C1C3(C)C)[C@]1(OC(C)=O)CO[C@@H]1C[C@@H]2O
- T/C (endpoint: mean survival time, dose: 1.25 mg/kg/injection, schedule: Q01DX009 (ip), vehicle: Klucel (hydroxypropylcellulose) (HPC)): 93 % of control
- T/C (endpoint: mean survival time, dose: 2.5 mg/kg/injection, schedule: Q01DX009 (ip), vehicle: Klucel (hydroxypropylcellulose) (HPC)): 98 % of control
- T/C (endpoint: mean survival time, dose: 5.0 mg/kg/injection, schedule: Q01DX009 (ip), vehicle: Klucel (hydroxypropylcellulose) (HPC)): 113 % of control and 102 % of control
- T/C (endpoint: mean survival time, dose: 10.0 mg/kg/injection, schedule: Q01DX009 (ip), vehicle: Klucel (hydroxypropylcellulose) (HPC)): 115 % of control
- T/C (endpoint: mean survival time, dose: 40.0 mg/kg/injection, schedule: Q01DX009 (ip), vehicle: Klucel (hydroxypropylcellulose) (HPC)): 107 % of control

Compound: O=[N+]([O-])c1ccccc1NCCO
- T/C [4]: 101 % of control
- T/C [5]: 98 % of control
- T/C [6]: 102 % of control

Compound: CC(C)CC(NC(=O)CF)C(=O)O (configuration not stated)
- T/C (endpoint: mean survival time, dose: 0.31 mg/kg/injection, schedule: Q01DX009 (ip), vehicle: saline): 98 % of control and 108 % of control
- T/C (endpoint: mean survival time, dose: 0.62 mg/kg/injection, schedule: Q01DX009 (ip), vehicle: saline): 98 % of control
- T/C (endpoint: mean survival time, dose: 0.63 mg/kg/injection, schedule: Q01DX009 (ip), vehicle: saline): 111 % of control
- T/C (endpoint: mean survival time, dose: 1.25 mg/kg/injection, schedule: Q01DX009 (ip), vehicle: saline): 98 % of control and 106 % of control
- T/C (endpoint: mean survival time, dose: 2.5 mg/kg/injection, schedule: Q01DX009 (ip), vehicle: saline): 98 % of control and 100 % of control
- T/C (endpoint: mean survival time, dose: 5.0 mg/kg/injection, schedule: Q01DX009 (ip), vehicle: saline): 98 % of control and 110 % of control

Compound: C/C(=C\C(=O)C(C)(C)C)C(C)(C)C
- T/C [4]: 93 % of control
- T/C [5]: 96 % of control
- T/C [6]: 96 % of control

Compound: OCC1OC(n2cnc3c2NC=N[C@@H]3CO)C(O)C1O (some centres not stated)
- T/C (endpoint: mean survival time, dose: 12.5 mg/kg/injection, schedule: Q01DX005 (ip), vehicle: water): 100 % of control
- T/C (endpoint: mean survival time, dose: 25.0 mg/kg/injection, schedule: Q01DX005 (ip), vehicle: water): 100 % of control
- T/C (endpoint: mean survival time, dose: 50.0 mg/kg/injection, schedule: Q01DX005 (ip), vehicle: water): 104 % of control
- T/C (endpoint: mean survival time, dose: 100.0 mg/kg/injection, schedule: Q01DX005 (ip), vehicle: water): 109 % of control
- T/C (endpoint: mean survival time, dose: 200.0 mg/kg/injection, schedule: Q01DX005 (ip), vehicle: water): 111 % of control

Compound: CCOC(=O)/C=C/SCCCN
- T/C (endpoint: mean survival time, dose: 100.0 mg/kg/injection, schedule: Q04DX003 (ip), vehicle: saline): 98 % of control
- T/C (endpoint: mean survival time, dose: 200.0 mg/kg/injection, schedule: Q04DX003 (ip), vehicle: saline): 96 % of control

Compound: Nc1nc(Cl)nc2c1ncn2C1OC(CO)C(O)C1O (configuration not stated)
- T/C (endpoint: mean survival time, dose: 6.25 mg/kg/injection, schedule: Q04DX002 (ip), vehicle: saline): 94 % of control
- T/C (endpoint: mean survival time, dose: 12.5 mg/kg/injection, schedule: Q04DX002 (ip), vehicle: saline): 109 % of control
- T/C (endpoint: mean survival time, dose: 25.0 mg/kg/injection, schedule: Q04DX002 (ip), vehicle: saline): 105 % of control
- T/C [7]: 121 % of control

Compound: CC[S-].CC[S-].[Ni+2]
- T/C (endpoint: mean survival time, dose: 5.0 mg/kg/injection, schedule: Q01DX001 (ip), vehicle: saline): 103 % of control
- T/C (endpoint: mean survival time, dose: 10.0 mg/kg/injection, schedule: Q01DX001 (ip), vehicle: saline): 103 % of control
- T/C (endpoint: mean survival time, dose: 20.0 mg/kg/injection, schedule: Q01DX001 (ip), vehicle: saline): 103 % of control

Compound: C/C=C\c1ccc(OCCOC(=O)Nc2ccc(Cl)cc2C)c(OC)c1
- T/C [8]: 87 % of control
- T/C [9]: 92 % of control
- T/C (endpoint: mean survival time, dose: 200.0 mg/kg/injection, schedule: Q01DX009 (ip), vehicle: saline with Tween-80): 100 % of control

Compound: CN=C(c1ccccc1)C1(O)CC2CCC1C2 (configuration not stated)
- T/C (endpoint: mean survival time, dose: 100.0 mg/kg/injection, schedule: Q01DX001 (ip), vehicle: saline): 101 % of control
- T/C (endpoint: mean survival time, dose: 200.0 mg/kg/injection, schedule: Q01DX001 (ip), vehicle: saline): 98 % of control
- T/C (endpoint: mean survival time, dose: 400.0 mg/kg/injection, schedule: Q01DX001 (ip), vehicle: saline): 101 % of control

Compound: C1=CCC2C3C=CC(CC3)C2C1 (configuration not stated)
- T/C (endpoint: mean survival time, dose: 75.0 mg/kg/injection, schedule: Q01DX001 (ip), vehicle: saline): 86 % of control
- T/C (endpoint: mean survival time, dose: 150.0 mg/kg/injection, schedule: Q01DX001 (ip), vehicle: saline): 95 % of control
- T/C (endpoint: mean survival time, dose: 300.0 mg/kg/injection, schedule: Q01DX001 (ip), vehicle: saline): 97 % of control

Compound: O=C(Nc1ccccc1)OC1CCCCC1OC(=O)Nc1ccccc1 (configuration not stated)
- T/C [6]: 86 % of control

Compound: Cc1nc2[nH]c(=O)[nH]c(=O)c2[nH]1
- T/C (endpoint: mean survival time, dose: 25.0 mg/kg/injection, schedule: Q01DX009 (ip), vehicle: saline with Tween-80): 94 % of control
- T/C [8]: 96 % of control
- T/C [9]: 92 % of control

Compound: [NH-]NC(=S)[S-].[NH-]NC(=S)[S-].[Pd]
- T/C [1]: 91 % of control

Compound: Cc1ccc(C(C)C)cc1NC(=O)c1ccccc1C(=O)O
- T/C [1]: 95 % of control
- T/C [2]: 95 % of control
- T/C [3]: 87 % of control

Compound: O=C(O)c1c(F)c(F)c(-c2c(F)c(F)c(C(=O)O)c(C(=O)O)c2F)c(F)c1C(=O)O
- T/C [4]: 95 % of control
- T/C [5]: 96 % of control

Compound: OCC1CCCCCCC1
- T/C (endpoint: mean survival time, dose: 50.0 mg/kg/injection, schedule: Q01DX001 (ip), vehicle: carboxymethylcellulose (CMC)): 100 % of control
- T/C (endpoint: mean survival time, dose: 100.0 mg/kg/injection, schedule: Q01DX001 (ip), vehicle: carboxymethylcellulose (CMC)): 100 % of control
- T/C (endpoint: mean survival time, dose: 200.0 mg/kg/injection, schedule: Q01DX001 (ip), vehicle: carboxymethylcellulose (CMC)): 102 % of control
- T/C (endpoint: mean survival time, dose: 400.0 mg/kg/injection, schedule: Q01DX001 (ip), vehicle: carboxymethylcellulose (CMC)): 96 % of control

Compound: COc1ccc(C(OCC2OC(n3cc(C)c(=O)[nH]c3=O)CC2OP(=O)(O)OCC2OC(n3cc(C)c(=O)[nH]c3=O)CC2OP(=O)(O)OCC2OC(n3cc(C)c(=O)[nH]c3=O)CC2OP(=O)(O)OCC2OC(n3cc(C)c(=O)[nH]c3=O)CC2OP(=O)(O)OCC2OC(n3ccc(N)nc3=O)C(O)C2O)(c2ccccc2)c2ccccc2)cc1 (configuration not stated)
- T/C (endpoint: median survival time, dose: 25.0 mg/kg/injection, schedule: Q01DX005 (ip), vehicle: saline): 108 % of control
- T/C (endpoint: median survival time, dose: 50.0 mg/kg/injection, schedule: Q01DX005 (ip), vehicle: saline): 122 % of control
- T/C (endpoint: median survival time, dose: 400.0 mg/kg/injection, schedule: Q01DX005 (ip), vehicle: saline): 162 % of control

Compound: N.N.O=C([O-])/C=C\C(=O)[O-].[Pt]
- T/C (endpoint: mean survival time, dose: 2.5 mg/kg/injection, schedule: Q04DX003 (ip), vehicle: distilled water + Tween-80): 112 % of control
- T/C (endpoint: mean survival time, dose: 5.0 mg/kg/injection, schedule: Q04DX003 (ip), vehicle: distilled water + Tween-80): 116 % of control
- T/C (endpoint: mean survival time, dose: 10.0 mg/kg/injection, schedule: Q04DX003 (ip), vehicle: distilled water + Tween-80): 113 % of control
- T/C (endpoint: mean survival time, dose: 10.0 mg/kg/injection, schedule: Q04DX003 (ip), vehicle: water): 105 % of control
- T/C (endpoint: mean survival time, dose: 20.0 mg/kg/injection, schedule: Q04DX003 (ip), vehicle: distilled water + Tween-80): 118 % of control
- T/C (endpoint: mean survival time, dose: 20.0 mg/kg/injection, schedule: Q04DX003 (ip), vehicle: water): 113 % of control
- T/C (endpoint: mean survival time, dose: 40.0 mg/kg/injection, schedule: Q04DX003 (ip), vehicle: water): 118 % of control

Compound: O=C(O)c1c[nH]c2ccccc2c1=O
- T/C [1]: 101 % of control
- T/C [2]: 101 % of control
- T/C [3]: 90 % of control

Compound: O=S(=O)(O)c1ccccc1O
- T/C [7]: 101 % of control

Compound: CC(C)(Nc1nc2c(ncn2C2OC(CO)C(O)C2O)c(=O)[nH]1)P(=O)(O)O (configuration not stated)
- T/C (endpoint: median survival time, dose: 12.5 mg/kg/injection, schedule: Q01DX005 (ip), vehicle: water): 105 % of control
- T/C (endpoint: median survival time, dose: 25.0 mg/kg/injection, schedule: Q01DX005 (ip), vehicle: water): 103 % of control
- T/C (endpoint: median survival time, dose: 50.0 mg/kg/injection, schedule: Q01DX005 (ip), vehicle: water): 108 % of control
- T/C (endpoint: median survival time, dose: 100.0 mg/kg/injection, schedule: Q01DX005 (ip), vehicle: water): 105 % of control
